Laboratory results taken from patent US12122767B2, “Bicyclic heterocycles as FGFR inhibitors” (Incyte Corporation, priority 2019, dated 2024).

biological target: T1, FGFR3 enzyme (Millipore) (Homo sapiens, UniProt P22607); test: FGFR Enzymatic Assay (peptide phosphorylation, FRET); type: biochemical; conditions: pre-incubated for 4 hours; ATP 140 μM, peptide 500 nM
T1 construct: purchased Millipore
Procedure: The inhibitor potency of the exemplified compounds was measured in an enzyme assay that measures peptide phosphorylation using FRET measurements to detect product formation. Inhibitors were serially diluted in DMSO and a volume of 0.5 μL was transferred to the wells of a 384-well plate. For FGFR3, a 10 μL volume of FGFR3 enzyme (Millipore) diluted in assay buffer (50 mM HEPES, 10 mM MgCl2, 1 mM EGTA, 0.01% Tween-20, 5 mM DTT, pH 7.5) was added to the plate and pre-incubated for a time between 5-10 minutes and up to 4 hours. Appropriate controls (enzyme blank and enzyme with no inhibitor) were included on the plate. The assay was initiated by the addition of a 10 μL solution containing biotinylated EQEDEPEGDYFEWLE peptide substrate (SEQ ID NO: 1) and ATP (final concentrations of 500 nM and 140 μM respectively) in assay buffer to the wells. The plate was incubated at 25° C. for 1 hr. The reactions were ended with the addition of 10 μL/well of quench solution (50 mM Tris, 150 mM NaCl, 0.5 mg/mL BSA, pH 7.8; 30 mM EDTA with Perkin Elmer Lance Reagents at 3.75 nM Eu-antibody PY20 and 180 nM APC-Streptavidin). The plate was allowed to equilibrate for ˜1 hr before scanning the wells on a PheraStar plate reader (BMG Labtech).
GraphPad prism3 was used to analyze the data. The IC50 values were derived by fitting the data to the equation for a sigmoidal dose-response with a variable slope. Y=Bottom+(Top-Bottom)/(1+10^((Log IC50−X)*HillSlope)) where X is the logarithm of concentration and Y is the response.
Table 1 provides IC50 data for compounds of the invention assayed in the FGFR Enzymatic Assay after dilution in assay buffer, added to the plate and pre-incubated for 4 hours.

T1 sequence (P22607 23-806): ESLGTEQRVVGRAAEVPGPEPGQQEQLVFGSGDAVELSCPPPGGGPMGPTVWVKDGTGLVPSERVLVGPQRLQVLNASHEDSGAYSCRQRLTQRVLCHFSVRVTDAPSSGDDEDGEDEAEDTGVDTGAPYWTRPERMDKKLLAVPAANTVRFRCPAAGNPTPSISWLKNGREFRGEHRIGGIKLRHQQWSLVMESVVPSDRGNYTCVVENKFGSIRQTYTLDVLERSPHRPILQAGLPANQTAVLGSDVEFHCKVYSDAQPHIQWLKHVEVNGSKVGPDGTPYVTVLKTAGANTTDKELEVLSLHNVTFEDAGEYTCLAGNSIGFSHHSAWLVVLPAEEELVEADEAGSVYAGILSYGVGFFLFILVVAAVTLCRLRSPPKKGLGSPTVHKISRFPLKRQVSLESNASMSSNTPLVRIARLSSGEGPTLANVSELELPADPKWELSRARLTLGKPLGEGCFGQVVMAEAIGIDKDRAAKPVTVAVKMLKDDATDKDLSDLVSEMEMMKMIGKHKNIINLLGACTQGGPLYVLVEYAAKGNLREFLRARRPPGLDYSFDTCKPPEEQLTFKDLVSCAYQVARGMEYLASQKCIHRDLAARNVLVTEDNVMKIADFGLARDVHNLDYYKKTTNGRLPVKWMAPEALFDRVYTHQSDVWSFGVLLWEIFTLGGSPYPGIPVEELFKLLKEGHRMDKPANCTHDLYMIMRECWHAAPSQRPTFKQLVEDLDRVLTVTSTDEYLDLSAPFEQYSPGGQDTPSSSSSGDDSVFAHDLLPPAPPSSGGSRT

Row | Compound | IC50 [nM]
1 | COc1cc2[nH]nc(-c3cnn(Cc4ccccn4)c3)c2cc1C(=O)Nc1c(C)cccc1C [Example 37, N-(2,6-Dimethylphenyl)-6-methoxy-3-(1-(pyridin-2-ylmethyl)-1H-pyrazol-4-yl)-1H-indazole-5-carboxamide] | < 10
2 | COc1cc(C)c(NC(=O)c2cc3c(-c4cnn(C)c4)n[nH]c3cc2OC)c(C)c1 [Example 10, 6-Methoxy-N-(4-methoxy-2,6-dimethylphenyl)-3-(1-methyl-1H-pyrazol-4-yl)-1H-indazole-5-carboxamide] | 30 to 200
3 | CCNC(=O)Cn1cc(-c2n[nH]c3cc(OC)c(C(=O)Nc4c(C)cccc4C)cc23)cn1 [Example 19, N-(2,6-Dimethylphenyl)-3-(1-(2-(ethylamino)-2-oxoethyl)-1H-pyrazol-4-yl)-6-methoxy-1H-indazole-5-carboxamide] | 10 to 30
4 | COC(=O)N1CC(n2cc(-c3n[nH]c4cc(OC)c(C(=O)Nc5c(C)cccc5C)cc34)cn2)C1 [Example 31, Methyl 3-(4-(5-((2,6-dimethylphenyl)carbamoyl)-6-methoxy-1H-indazol-3-yl)-1H-pyrazol-1-yl)azetidine-1-carboxylate] | < 10
5 | COc1cc2[nH]nc(-c3cnn(-c4ccccn4)c3)c2cc1C(=O)Nc1c(C)cccc1C [Example 42, N-(2,6-Dimethylphenyl)-6-methoxy-3-(1-(pyridin-2-yl)-1H-pyrazol-4-yl)-1H-indazole-5-carboxamide] | 30 to 200
6 | COc1cc2[nH]nc(-c3cnn(C4CN(C(C)=O)C4)c3)c2cc1C(=O)Nc1c(C)cccc1C [Example 33, 3-(1-(1-Acetylazetidin-3-yl)-1H-pyrazol-4-yl)-N-(2,6-dimethylphenyl)-6-methoxy-1H-indazole-5-carboxamide] | < 10

Second part, the compound after the results:

Row | IC50 [nM] | Compound
7 | < 10 | CCCn1cc(-c2n[nH]c3cc(OC)c(C(=O)Nc4c(C)cccc4C)cc23)cn1 [Example 45, N-(2,6-Dimethylphenyl)-6-methoxy-3-(1-propyl-1H-pyrazol-4-yl)-1H-indazole-5-carboxamide]
8 | < 10 | COc1cc2[nH]nc(-c3cnn(C)c3)c2cc1C(=O)Nc1c(C)cc(F)cc1C [Example 5, N-(4-Fluoro-2,6-dimethylphenyl)-6-methoxy-3-(1-methyl-1H-pyrazol-4-yl)-1H-indazole-5-carboxamide]
9 | ≥ 200 | Cc1cc2[nH]nc(-c3cnn(C)c3)c2cc1C(=O)Nc1c(C)cccc1C [Example 12, N-(2,6-Dimethylphenyl)-6-methyl-3-(1-methyl-1H-pyrazol-4-yl)-1H-indazole-5-carboxamide]
10 | < 10 | COc1cc2[nH]nc(-c3cnn(C)c3)c2cc1C(=O)Nc1c(F)cccc1Cl [Example 2, N-(2-Chloro-6-fluorophenyl)-6-methoxy-3-(1-methyl-1H-pyrazol-4-yl)-1H-indazole-5-carboxamide]
11 | < 10 | COc1cc2[nH]nc(-c3cnn(C)c3)c2cc1C(=O)Nc1c(C)cccc1F [Example 8, N-(2-Fluoro-6-methylphenyl)-6-methoxy-3-(1-methyl-1H-pyrazol-4-yl)-1H-indazole-5-carboxamide]
12 | < 10 | COc1cc2[nH]nc(-c3cnn(C4CC4)c3)c2cc1C(=O)Nc1c(C)cccc1C [Example 44, 3-(1-Cyclopropyl-1H-pyrazol-4-yl)-N-(2,6-dimethylphenyl)-6-methoxy-1H-indazole-5-carboxamide]
13 | < 10 | CCc1cccc(C)c1NC(=O)c1cc2c(-c3cnn(C)c3)n[nH]c2cc1OC [Example 6, N-(2-Ethyl-6-methylphenyl)-6-methoxy-3-(1-methyl-1H-pyrazol-4-yl)-1H-indazole-5-carboxamide]
14 | 10 to 30 | COc1cc2[nH]nc(-c3cnn(C4CC4)c3)c2cc1C(=O)Nc1c(F)cccc1Cl [Example 18, N-(2-Chloro-6-fluorophenyl)-3-(1-cyclopropyl-1H-pyrazol-4-yl)-6-methoxy-1H-indazole-5-carboxamide]
